Results reported in BigSolDB 2.1.

COc1cc(/C=C/C(=O)CC(=O)/C=C/c2ccc(O)c(OC)c2)ccc1O
solubility (mole fraction)
Conditions | 278.15 K | 283.15 K | 288.15 K | 293.15 K | 298.15 K | 303.15 K | 308.15 K | 313.15 K | 318.15 K
in ethanol | 0.000407 | 0.000497 | 0.000573 | 0.000662 | 0.000769 | 0.000888 | 0.00101 | 0.00113 | 0.00128
in isopropanol | 0.00146 | 0.0017 | 0.00194 | 0.00219 | 0.00252 | 0.00284 | 0.00317 | 0.00357 | 0.004
in n-propanol | 0.0023 | 0.0026 | 0.00291 | 0.00325 | 0.0036 | 0.00401 | 0.00437 | 0.00484 | 0.00526
in propylene glycol | 0.000715 | 0.000827 | 0.000967 | 0.0011 | 0.00126 | 0.00143 | 0.00161 | 0.00182 | 0.00206
in water | 8.34e-09 | 1.16e-08 | 1.59e-08 | 2.15e-08 | 2.94e-08 | 4.03e-08 | 5.38e-08 | 7.06e-08 | 9.32e-08
